Assay results from ChEMBL document CHEMBL1201862, “PubChem BioAssay data set” (2004).
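Exposure lasted 48 hours, with cells grown in 96-well plates and compounds tested at five concentrations. The concentration for 50% growth inhibition is given as GI50.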 Activity calls are given as the source filed them. Cut-off read from the data, not from the text of the source: active = GI50 up to about 1.1 µM and inactive = higher.

How the values were obtained:
Assay in all cases: NCI tumour cell line growth inhibition, 48 h
[1] = test system: OVCAR-5
[2] = test system: SK-MEL-2
[3] = test system: 786-0
[4] = test system: NCI-H460
[5] = test system: K562
[6] = test system: EKVX
[7] = test system: TK-10
[8] = test system: A498
[9] = test system: UACC-257
[10] = test system: KM12
[11] = test system: SN12C
[12] = test system: HOP-92
[13] = test system: MDA-MB-435
[14] = test system: OVCAR-4
[15] = test system: MCF7
[16] = test system: UACC-62
[17] = test system: Malme-3M
[18] = test system: A549
[19] = test system: HT-29
[20] = test system: SF-539
[21] = test system: SK-MEL-5
[22] = test system: T47D
[23] = test system: PC-3
[24] = test system: DU-145
[25] = test system: OVCAR-3
[26] = test system: SNB-19
[27] = test system: ACHN
[28] = test system: SR
[29] = test system: U-251
[30] = test system: IGROV-1
[31] = test system: M14
[32] = test system: HCT-15
[33] = test system: HCT-116
[34] = test system: SW-620
[35] = test system: NCI/ADR-RES
[36] = test system: NCI-H522
[37] = test system: COLO 205
[38] = test system: SK-MEL-28
[39] = test system: HCC 2998
[40] = test system: SF-268
[41] = test system: OVCAR-8
[42] = test system: SK-OV-3
[43] = test system: HOP-62
[44] = test system: NCI-H23
[45] = test system: SNB-75
[46] = test system: HL-60
[47] = test system: SF-295
[48] = test system: LOX IMVI
[49] = test system: MDA-N
[50] = test system: Hs-578T
[51] = test system: NCI-H226
[52] = test system: RPMI-8226
[53] = test system: UO-31
[54] = test system: RXF 393
[55] = test system: MOLT-4
[56] = test system: CCRF-CEM
[57] = test system: MDA-MB-231
[58] = test system: CAKI-1

Measured: GI50

O=P1(O)C=CC2(CCCC2)O1
inactive: [1] > 100 µM | [2] > 100 µM | [3] > 100 µM | [4] > 100 µM | [5] > 100 µM | [6] > 100 µM | [7] > 100 µM | [8] > 100 µM | [9] > 100 µM | [10] > 100 µM | [11] > 100 µM | [12] > 100 µM | [13] > 100 µM | [14] > 100 µM | [15] > 100 µM | [16] > 100 µM | [17] > 100 µM | [18] > 100 µM | [19] > 100 µM | [20] > 100 µM | [21] > 100 µM | [22] > 100 µM | [23] > 100 µM | [24] > 100 µM | [25] > 100 µM | [26] > 100 µM | [27] > 100 µM | [28] > 100 µM | [29] > 100 µM | [30] > 100 µM | [31] > 100 µM | [33] > 100 µM | [34] > 100 µM | [35] > 100 µM | [36] > 100 µM | [37] > 100 µM | [38] > 100 µM | [39] > 100 µM | [40] > 100 µM | [41] > 100 µM | [42] > 100 µM | [43] > 100 µM | [44] > 100 µM | [45] > 100 µM | [46] > 100 µM | [47] > 100 µM | [48] > 100 µM | [49] > 100 µM
> 100 µM: [32]

O=C1C=CC2C3C(=O)N(c4ccccc4)C(=O)C3C1N2Cc1ccccc1 (stereo not given)
inactive: [50] 3.51 µM | [37] 3.1 µM | [43] 3.72 µM | [51] 8.07 µM

CCCCCCCCCC[C@@H](O)[C@@H]1CC[C@@H]([C@@H]2CC[C@@H]([C@@H](O)CCCCCCCCCCC(O)CC3=CC(C)OC3=O)O2)O1 (stereo not given in full)
inactive: [52] 1.26 µM | [4] 1.28 µM | [6] 3.03 µM | [7] > 10 µM | [8] 5.61 µM | [9] 2.42 µM | [10] 3.53 µM | [11] > 10 µM | [54] 2.69 µM | [14] 1.38 µM | [15] 1.36 µM | [16] 3.79 µM | [17] 1.81 µM | [18] 2.53 µM | [55] 1.26 µM | [19] > 10 µM | [50] > 10 µM | [20] > 10 µM | [23] 5.04 µM | [24] 3.98 µM | [56] 2.47 µM | [28] 1.4 µM | [57] 2.32 µM | [30] > 10 µM | [31] > 10 µM | [34] 8.2 µM | [37] > 10 µM | [38] > 10 µM | [39] 4.84 µM | [40] > 10 µM | [41] 4.43 µM | [42] > 10 µM | [45] > 10 µM | [47] 2.72 µM
5.89 µM: [32]
active: [1] 0.128 µM | [53] 0.562 µM | [5] 0.248 µM | [21] 0.333 µM | [22] 0.984 µM | [27] 0.931 µM | [33] 0.551 µM | [35] 0.729 µM | [36] 0.177 µM | [43] 0.655 µM | [46] 0.116 µM | [48] 1.05 µM | [51] 0.173 µM

CC(=O)c1c(-c2cccc3ccccc23)c(C#N)c(=S)n(C2OC(CO)C(O)C(O)C2O)c1-c1ccccc1 (stereo not given)
active: [6] 0.0509 µM
inactive: [12] 13.5 µM

C=C1CN=C(Nc2ccc(Cl)cc2)S1
inactive: [1] > 100 µM | [52] 83.8 µM | [2] > 100 µM | [3] > 100 µM | [53] > 100 µM | [4] > 100 µM | [5] 96.8 µM | [6] > 100 µM | [7] > 100 µM | [8] > 100 µM | [9] > 100 µM | [10] 66.7 µM | [11] > 100 µM | [12] 28.2 µM | [14] > 100 µM | [15] 45.6 µM | [58] > 10 µM | [17] > 100 µM | [18] > 100 µM | [55] > 10 µM | [19] > 100 µM | [50] > 100 µM | [20] > 100 µM | [21] > 100 µM | [22] > 100 µM | [23] > 100 µM | [24] > 100 µM | [56] 71 µM | [25] > 100 µM | [26] > 100 µM | [27] > 100 µM | [28] 52.8 µM | [57] > 100 µM | [29] 93.3 µM | [30] > 100 µM | [31] > 100 µM | [33] > 100 µM | [34] > 100 µM | [35] > 100 µM | [37] > 100 µM | [38] > 100 µM | [39] > 100 µM | [40] > 100 µM | [41] > 100 µM | [42] > 100 µM | [43] > 100 µM | [44] > 100 µM | [45] > 100 µM | [46] > 10 µM | [47] > 100 µM | [48] 62.1 µM | [49] > 100 µM
> 100 µM: [32]

CCOC(=O)C(=CNC(=S)c1ccncc1)C(=O)OCC
inactive: [1] > 100 µM | [52] > 100 µM | [2] > 100 µM | [3] > 100 µM | [53] > 100 µM | [4] > 100 µM | [5] > 100 µM | [6] > 100 µM | [7] > 100 µM | [8] > 100 µM | [9] > 100 µM | [10] > 100 µM | [11] > 100 µM | [54] > 100 µM | [12] > 100 µM | [13] > 100 µM | [14] > 100 µM | [15] > 100 µM | [16] > 100 µM | [58] > 100 µM | [17] > 100 µM | [18] > 100 µM | [55] > 100 µM | [50] > 100 µM | [20] > 100 µM | [21] > 100 µM | [22] > 100 µM | [23] > 100 µM | [24] > 100 µM | [56] > 100 µM | [25] 76.2 µM | [26] > 100 µM | [27] > 100 µM | [28] > 100 µM | [57] > 100 µM | [29] > 100 µM | [30] > 100 µM | [31] > 100 µM | [33] > 100 µM | [34] > 100 µM | [36] > 100 µM | [37] > 100 µM | [38] > 100 µM | [39] > 100 µM | [40] > 100 µM | [42] > 100 µM | [43] > 100 µM | [44] > 100 µM | [45] 25.6 µM | [46] > 100 µM | [47] > 100 µM | [48] > 100 µM | [49] > 100 µM
> 100 µM: [32]
